How the values were obtained:
p-glycoprotein = experiment: In vivo pharmacokinetic assay with the PgP transport inhibitor Elacridar; settings: rat; Elacridar 3 mg/kg intravenous shortly before oral 1 mg/kg; 0.5 h; indicates absence of notable p-glycoprotein interactions
Method: Adult male rats (Charles River, Italy) were dosed with test compound orally at 1 mg/kg (5 ml/kg, in 5% v/v DMSO, 0.5% w/v HPMC in water) and intravenously at 0.5 mg/kg (2 ml/kg, in 5% v/v DMSO 40% w/v PEG400 in saline). After oral administration, blood samples were collected under deep Isofluorane anesthesia from the portal vein and heart of each rat (1 rat per time point). After intravenous administration, serial blood samples were collected from the lateral tail vein of each rat. A further group of rats (n=1 per test compound) received a single intravenous administration of the PgP transport inhibitor, Elacridar (3 mg/kg) shortly before the oral administration of the test compound at 1 mg/kg, as above. Blood and brain samples were collected at a single timepoint of 0.5 h after dose administration for these animals. In all cases, blood samples were collected into potassium EDTA tubes.
Blood and brain samples were assayed for test compound concentration using a method based on protein precipitation with acetonitrile followed by HPLC/MS-MS analysis with an optimized analytical method.
The concentrations of test compound in blood (expressed as ng/ml) and brain (expressed as ng/g) at the different time points following either oral or intravenous dosing were analysed using a non-compartmental pharmacokinetic model using WinNonLin Professional version 4.1. The following parameters were derived:
Oral dosing: Cmax, time of maximum concentration (Tmax), AUC, bioavailability (F %), fraction absorbed (Fa %), blood to brain ratio (AUC BB), and Fold-change in AUC BB in the presence of Elacridar.

[1] = system: amphetamine induced hyperlocomotion; experiment: Mouse model of amphetamine induced hyperlocomotion; format: in vivo; settings: 60 mg/kg, 60 minute period following amphetamine administration, P<0.01
Method: Example 33 was tested in the_mouse model of amphetamine induced hyperlocomotion described in Example 93 of WO2011/069951A1.

[2] = target: T1, human Kv3.1 channels (hKv3.1) (Homo sapiens, UniProt P48547); experiment: IonWorks Quattro electrophysiology, potentiation of hKv3.1 currents; format: cell-based; settings: between Kv3.1 and Kv3.2 channels
T1 construct: expressed in transfected cells; host or cells: CHO/Gam/E1A-clone22 (CGE22) cells, CHO-K1-derived, transiently transduced with BacMam pFBM/human Kv3.1
T1 sequence (P48547 1-511): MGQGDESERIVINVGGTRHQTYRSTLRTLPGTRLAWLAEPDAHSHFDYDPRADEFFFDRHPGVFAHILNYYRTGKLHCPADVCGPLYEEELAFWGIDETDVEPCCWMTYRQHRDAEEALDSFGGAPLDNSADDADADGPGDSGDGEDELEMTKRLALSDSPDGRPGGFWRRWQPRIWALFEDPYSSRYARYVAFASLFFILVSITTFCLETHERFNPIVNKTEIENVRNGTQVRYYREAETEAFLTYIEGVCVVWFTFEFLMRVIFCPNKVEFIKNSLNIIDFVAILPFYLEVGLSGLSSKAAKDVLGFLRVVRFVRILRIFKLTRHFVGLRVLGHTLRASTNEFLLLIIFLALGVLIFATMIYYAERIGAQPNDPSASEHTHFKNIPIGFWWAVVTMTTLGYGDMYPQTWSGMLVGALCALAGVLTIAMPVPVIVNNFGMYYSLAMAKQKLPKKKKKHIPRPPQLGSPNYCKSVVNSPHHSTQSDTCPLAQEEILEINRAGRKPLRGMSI

Structure (SMILES)	change in AUC BB in the presence of Elacridar (p-glycoprotein)	increase in locomotor activity induced by amphetamine [1]	difference in pEC50 values between the two channels [2]
CC1(C)NC(=O)N(c2ccc(Oc3cccc4c3C3(CC3)CO4)nc2)C1=O [Reference Example 88, 5,5-dimethyl-3-[6-(spiro[1-benzofuran-3,1′-cyclopropan]-4-yloxy)-3-pyridinyl]-2,4-imidazolidinedione]	–	–	0.7 log unit
CC[C@H]1NC(=O)N(c2ccc(Oc3cccc4c3C3(CC3)CO4)nc2)C1=O [Reference Example 87, (5R)-5-ethyl-3-[6-(spiro[1-benzofuran-3,1′-cyclopropan]-4-yloxy)-3-pyridinyl]-2,4-imidazolidinedione]	–	–	0.7 log unit
CC1(C)NC(=O)N(c2ccc(Oc3ccc4c(c3)C(C(C)(C)C)OC4)nc2)C1=O (single isomer, unassigned) [Example 50, 3-[6-[(3-tert-butyl-1,3-dihydroisobenzofuran-5-yl)oxy]-3-pyridyl]-5,5-dimethyl-imidazolidine-2,4-dione]	limited change	–	–

Continued, in another order:

change in AUC BB in the presence of Elacridar (p-glycoprotein)	Structure (SMILES)	increase in locomotor activity induced by amphetamine [1]	difference in pEC50 values between the two channels [2]
limited change	CC[C@@]1(C)NC(=O)N(c2ccc(Oc3ccc4c(c3)C(C)(C)OC4)nc2)C1=O [Example 33, (5R)-3-[6-[(3,3-dimethyl-1H-isobenzofuran-5-yl)oxy]-3-pyridyl]-5-ethyl-5-methyl-imidazolidine-2,4-dione]	completely prevented	–
limited change	CC1(C)NC(=O)N(c2ccc(Oc3ccc4c(c3)C3(CCC3)OC4)nc2)C1=O [Example 58, 5,5-dimethyl-3-(6-spiro[1H-isobenzofuran-3,1′-cyclobutane]-5-yloxy-3-pyridyl)imidazolidine-2,4-dione]	–	–
limited change	CC1(C)NC(=O)N(c2ccc(Oc3ccc4c(c3)C(C)(C(F)(F)F)OC4)nc2)C1=O (single isomer, unassigned) [Example 52, 5,5-dimethyl-3-[6-[[3-methyl-3-(trifluoromethyl)-1H-isobenzofuran-5-yl]oxy]-3-pyridyl]imidazolidine-2,4-dione]	–	–
limited change	CC1(C)NC(=O)N(c2cnc(Oc3ccc4c(c3)C3(CCCC3)OC4)nc2)C1=O [Example 12, 5,5-dimethyl-3-(2-spiro[1H-isobenzofuran-3,1′-cyclopentane]-5-yloxypyrimidin-5-yl)imidazolidine-2,4-dione]	–	–

Reference: patent publication US9193704B2, “Hydantoin derivatives as KV3 inhibitors” (AUTIFONY THERAPEUTICS LIMITED, priority 2011, dated 2015)
